Data from patent publication US11203595B2, “Aza-indazole compounds for use in tendon and/or ligament injuries” (NOVARTIS AG, priority 2016, dated 2021).
Like-named read-outs stand apart in the source and are kept apart here.

Columns and labels:
[1] = system: Scleraxis (Scx) gene transcriptional activation, TT-D6 Scx-luciferase (ScxL) cell line; test: SCX-LUC in vitro assay (scleraxis-luciferase reporter); assay type: cell-based, mouse; conditions: read-out: Scx-Luc (EC50 μM)
[2] = Cumulative release of microparticle formulations in PBS buffer (FIG. 1); assay type: physicochemical; conditions: incorporated into PLGA microparticles; following the initial burst; PBS buffer pH 7.4, 1% Tween 20
[3] = In-vivo release from microparticles in a rat model; conditions: PLGA microparticles
[4] = Mus musculus, 96 h, TT-D6 Scx-luciferase cells, 1 ng/ml TGFβ1, four days

Row | Compound | EC50 [1, 4] [µM] | further results
1 | Nc1n[nH]c2ccc(-c3ccc(S(=O)(=O)NC4CCS(=O)(=O)CC4)cc3Cl)nc12 [Example 50, 4-(3-amino-1H-pyrazolo[4,3-b]pyridin-5-yl)-3-chloro-N-(1,1-dioxidotetrahydro-2H-thiopyran-4-yl)benzenesulfonamide] | > 10 | 
2 | CNS(=O)(=O)c1ccc(S(=O)(=O)Nc2ccc(-c3ccc4[nH]nc(N)c4n3)c(Cl)c2)cc1 [Example 76, N1-(4-(3-amino-1H-pyrazolo[4,3-b]pyridin-5-yl)-3-chlorophenyl)-N4-methylbenzene-1,4-disulfonamide] | 0.003 | 
3 | Nc1n[nH]c2ccc(-c3ccc(S(=O)(=O)N4CCC[C@H]4CO)cc3Cl)nc12 [(S)-(1-((4-(3-amino-1H-pyrazolo[4,3-b]pyridin-5-yl)-3-chlorophenyl)sulfonyl)pyrrolidin-2-yl)methanol] | > 10 | 
4 | Nc1n[nH]c2ccc(-c3ccc(S(=O)(=O)NC4CCC(O)(C(F)(F)F)CC4)cc3Cl)nc12 [4-(3-amino-1H-pyrazolo[4,3-b]pyridin-5-yl)-3-chloro-N-((1R,4R)-4-hydroxy-4-(trifluoromethyl)cyclohexyl)benzenesulfonamide] |  | EC50 ([1]; TT-D6 Scx-luciferase cells, 1 ng/ml TGFβ1, four days): > 10 µM
5 | Nc1n[nH]c2ccc(-c3ccc(NS(=O)(=O)c4ccccc4)cc3Cl)nc12 [Example 46, N-(4-(3-amino-1H-pyrazolo[4,3-b]pyridin-5-yl)-3-chlorophenyl)benzenesulfonamide] | 0.01 | 
6 | Cc1cc(S(=O)(=O)N[C@H]2C[C@](O)(C(F)(F)F)C2)ccc1-c1ccc2[nH]nc(N)c2n1 [Example 2, 4-(3-amino-1H-pyrazolo[4,3-b]pyridin-5-yl)-N-((1s,3s)-3-hydroxy-3-(trifluoromethyl)cyclobutyl)-3-methylbenzenesulfonamide] |  | period of steady state release of drug [2]: 21 days; extended release in-vivo [3]: 4 weeks
7 | Nc1n[nH]c2ccc(-c3ccc(S(=O)(=O)N[C@H]4CCC[C@H]4O)cc3Cl)nc12 [Example 35, 4-(3-amino-1H-pyrazolo[4,3-b]pyridin-5-yl)-3-chloro-N-((1S,2R)-2-hydroxycyclopentyl)benzenesulfonamide] |  | EC50 ([1]; Mus musculus, 96 h): 2.73 µM
